Test results taken from the NIST ThermoML archive (doi:10.1016/j.jct.2007.04.005).

Assay: xn = mol fraction of the nth substance listed
Conditions: 328.15 K, Liquid

CCCCCCCCC [nonane] + C1CCCCC1
Conditions	mass density [kg/m3]
100 kPa, x2 = 0	690.5
100 kPa, x2 = 0.09303	693.4
100 kPa, x2 = 0.2009	697
100 kPa, x2 = 0.3051	700.9
100 kPa, x2 = 0.417	705.3
100 kPa, x2 = 0.512	709.7
100 kPa, x2 = 0.5996	714.5
100 kPa, x2 = 0.7052	720.8
100 kPa, x2 = 0.7993	727.5
100 kPa, x2 = 0.9039	735.7
101 kPa, x2 = 0	690.88
101 kPa, x2 = 0.1022	693.98
101 kPa, x2 = 0.1548	695.7
101 kPa, x2 = 0.2009	697.27
101 kPa, x2 = 0.2591	699.37
101 kPa, x2 = 0.3306	702.13
101 kPa, x2 = 0.4003	705.03
101 kPa, x2 = 0.4596	707.71
101 kPa, x2 = 0.5321	711.23
101 kPa, x2 = 0.612	715.53
101 kPa, x2 = 0.6649	718.62
101 kPa, x2 = 0.7224	722.28
101 kPa, x2 = 0.8047	728.07
101 kPa, x2 = 0.8686	733.12
101 kPa, x2 = 0.9405	739.53
2130 kPa, x2 = 0	691.4
2130 kPa, x2 = 0.09303	694.3
2130 kPa, x2 = 0.2009	697.9
2130 kPa, x2 = 0.3051	701.8
2130 kPa, x2 = 0.417	706.3
2130 kPa, x2 = 0.512	710.7
2130 kPa, x2 = 0.5996	715.6
2130 kPa, x2 = 0.7052	721.9
2130 kPa, x2 = 0.7993	728.6
2130 kPa, x2 = 0.9039	737
4150 kPa, x2 = 0	694.4
4150 kPa, x2 = 0.09303	697.3
4150 kPa, x2 = 0.2009	700.9
4150 kPa, x2 = 0.3051	704.8
4150 kPa, x2 = 0.417	709.3
4150 kPa, x2 = 0.512	713.7
4150 kPa, x2 = 0.5996	718.6
4150 kPa, x2 = 0.7052	724.9
4150 kPa, x2 = 0.7993	731.6
4150 kPa, x2 = 0.9039	739.9
6180 kPa, x2 = 0	696.3
6180 kPa, x2 = 0.09303	699.2
6180 kPa, x2 = 0.2009	702.8
6180 kPa, x2 = 0.3051	706.7
6180 kPa, x2 = 0.417	711.2
6180 kPa, x2 = 0.512	715.6
6180 kPa, x2 = 0.5996	720.5
6180 kPa, x2 = 0.7052	726.9
6180 kPa, x2 = 0.7993	733.5
6180 kPa, x2 = 0.9039	741.9
8210 kPa, x2 = 0	698.1
8210 kPa, x2 = 0.09303	701
8210 kPa, x2 = 0.2009	704.7
8210 kPa, x2 = 0.3051	708.6
8210 kPa, x2 = 0.417	713.1
8210 kPa, x2 = 0.512	717.5
8210 kPa, x2 = 0.5996	722.4
8210 kPa, x2 = 0.7052	728.8
8210 kPa, x2 = 0.7993	735.5
8210 kPa, x2 = 0.9039	743.9
10230 kPa, x2 = 0	699.9
10230 kPa, x2 = 0.09303	702.8
10230 kPa, x2 = 0.2009	706.5
10230 kPa, x2 = 0.3051	710.4
10230 kPa, x2 = 0.417	714.9
10230 kPa, x2 = 0.512	719.3
10230 kPa, x2 = 0.5996	724.3
10230 kPa, x2 = 0.7052	730.7
10230 kPa, x2 = 0.7993	737.3
10230 kPa, x2 = 0.9039	745.8
11250 kPa, x2 = 0	700.8
11250 kPa, x2 = 0.09303	703.7
11250 kPa, x2 = 0.2009	707.4
11250 kPa, x2 = 0.3051	711.3
11250 kPa, x2 = 0.417	715.8
11250 kPa, x2 = 0.512	720.2
11250 kPa, x2 = 0.5996	725.2
11250 kPa, x2 = 0.7052	731.6
11250 kPa, x2 = 0.7993	738.3
11250 kPa, x2 = 0.9039	746.7
12260 kPa, x2 = 0	701.7
12260 kPa, x2 = 0.09303	704.6
12260 kPa, x2 = 0.2009	708.3
12260 kPa, x2 = 0.3051	712.2
12260 kPa, x2 = 0.417	716.7
12260 kPa, x2 = 0.512	721.1
12260 kPa, x2 = 0.5996	726.1
12260 kPa, x2 = 0.7052	732.5
12260 kPa, x2 = 0.7993	739.2
12260 kPa, x2 = 0.9039	747.7
14290 kPa, x2 = 0	703.4
14290 kPa, x2 = 0.09303	706.3
14290 kPa, x2 = 0.2009	710.1
14290 kPa, x2 = 0.3051	714
14290 kPa, x2 = 0.417	718.5
14290 kPa, x2 = 0.512	722.9
14290 kPa, x2 = 0.5996	727.9
14290 kPa, x2 = 0.7052	734.4
14290 kPa, x2 = 0.7993	741
14290 kPa, x2 = 0.9039	749.5
16310 kPa, x2 = 0	705.1
16310 kPa, x2 = 0.09303	708
16310 kPa, x2 = 0.2009	711.8
16310 kPa, x2 = 0.3051	715.7
16310 kPa, x2 = 0.417	720.2
16310 kPa, x2 = 0.512	724.6
16310 kPa, x2 = 0.5996	729.7
16310 kPa, x2 = 0.7052	736.1
16310 kPa, x2 = 0.7993	742.8
16310 kPa, x2 = 0.9039	751.3
18340 kPa, x2 = 0	706.8
18340 kPa, x2 = 0.09303	709.6
18340 kPa, x2 = 0.2009	713.4
18340 kPa, x2 = 0.3051	717.3
18340 kPa, x2 = 0.417	721.9
18340 kPa, x2 = 0.512	726.3
18340 kPa, x2 = 0.5996	731.4
18340 kPa, x2 = 0.7052	737.9
18340 kPa, x2 = 0.7993	744.5
18340 kPa, x2 = 0.9039	753.1
20370 kPa, x2 = 0	708.4
20370 kPa, x2 = 0.09303	711.2
20370 kPa, x2 = 0.2009	715.1
20370 kPa, x2 = 0.3051	719
20370 kPa, x2 = 0.417	723.6
20370 kPa, x2 = 0.512	728
20370 kPa, x2 = 0.5996	733
20370 kPa, x2 = 0.7052	739.5
20370 kPa, x2 = 0.7993	746.2
20370 kPa, x2 = 0.9039	754.8
22390 kPa, x2 = 0	710
22390 kPa, x2 = 0.09303	712.8
22390 kPa, x2 = 0.2009	716.7
22390 kPa, x2 = 0.3051	720.6
22390 kPa, x2 = 0.417	725.2
22390 kPa, x2 = 0.512	729.6
22390 kPa, x2 = 0.5996	734.7
22390 kPa, x2 = 0.7052	741.2
22390 kPa, x2 = 0.7993	747.9
22390 kPa, x2 = 0.9039	756.5
24420 kPa, x2 = 0	711.5
24420 kPa, x2 = 0.09303	714.4
24420 kPa, x2 = 0.2009	718.2
24420 kPa, x2 = 0.3051	722.2
24420 kPa, x2 = 0.417	726.8
24420 kPa, x2 = 0.512	731.2
24420 kPa, x2 = 0.5996	736.3
24420 kPa, x2 = 0.7052	742.8
24420 kPa, x2 = 0.7993	749.5
24420 kPa, x2 = 0.9039	758.1
26450 kPa, x2 = 0	713
26450 kPa, x2 = 0.09303	715.9
26450 kPa, x2 = 0.2009	719.8
26450 kPa, x2 = 0.3051	723.7
26450 kPa, x2 = 0.417	728.3
26450 kPa, x2 = 0.512	732.7
26450 kPa, x2 = 0.5996	737.9
26450 kPa, x2 = 0.7052	744.4
26450 kPa, x2 = 0.7993	751.1
26450 kPa, x2 = 0.9039	759.8
28470 kPa, x2 = 0	714.5
28470 kPa, x2 = 0.09303	717.4
28470 kPa, x2 = 0.2009	721.3
28470 kPa, x2 = 0.3051	725.2
28470 kPa, x2 = 0.417	729.8
28470 kPa, x2 = 0.512	734.2
28470 kPa, x2 = 0.5996	739.4
28470 kPa, x2 = 0.7052	746
28470 kPa, x2 = 0.7993	752.6
28470 kPa, x2 = 0.9039	761.4
29490 kPa, x2 = 0	715.2
29490 kPa, x2 = 0.09303	718.1
29490 kPa, x2 = 0.2009	722
29490 kPa, x2 = 0.3051	725.9
29490 kPa, x2 = 0.417	730.6
29490 kPa, x2 = 0.512	735
29490 kPa, x2 = 0.5996	740.2
29490 kPa, x2 = 0.7052	746.7
29490 kPa, x2 = 0.7993	753.4
29490 kPa, x2 = 0.9039	762.1
30500 kPa, x2 = 0	716
30500 kPa, x2 = 0.09303	718.8
30500 kPa, x2 = 0.2009	722.8
30500 kPa, x2 = 0.3051	726.7
30500 kPa, x2 = 0.417	731.3
30500 kPa, x2 = 0.512	735.7
30500 kPa, x2 = 0.5996	740.9
30500 kPa, x2 = 0.7052	747.5
30500 kPa, x2 = 0.7993	754.2
30500 kPa, x2 = 0.9039	762.9
32530 kPa, x2 = 0	717.4
32530 kPa, x2 = 0.09303	720.3
32530 kPa, x2 = 0.2009	724.2
32530 kPa, x2 = 0.3051	728.1
32530 kPa, x2 = 0.417	732.8
32530 kPa, x2 = 0.512	737.2
32530 kPa, x2 = 0.5996	742.4
32530 kPa, x2 = 0.7052	748.9
32530 kPa, x2 = 0.7993	755.7
32530 kPa, x2 = 0.9039	764.4
34550 kPa, x2 = 0	718.8
34550 kPa, x2 = 0.09303	721.7
34550 kPa, x2 = 0.2009	725.6
34550 kPa, x2 = 0.3051	729.6
34550 kPa, x2 = 0.417	734.2
34550 kPa, x2 = 0.512	738.7
34550 kPa, x2 = 0.5996	743.9
34550 kPa, x2 = 0.7052	750.5
34550 kPa, x2 = 0.7993	757.1
34550 kPa, x2 = 0.9039	765.9
36580 kPa, x2 = 0	720.2
36580 kPa, x2 = 0.09303	723.1
36580 kPa, x2 = 0.2009	727
36580 kPa, x2 = 0.3051	730.9
36580 kPa, x2 = 0.417	735.7
36580 kPa, x2 = 0.512	740.1
36580 kPa, x2 = 0.5996	745.3
36580 kPa, x2 = 0.7052	751.9
36580 kPa, x2 = 0.7993	758.6
36580 kPa, x2 = 0.9039	767.4
38600 kPa, x2 = 0	721.6
38600 kPa, x2 = 0.09303	724.4
38600 kPa, x2 = 0.2009	728.4
38600 kPa, x2 = 0.3051	732.3
38600 kPa, x2 = 0.417	737
38600 kPa, x2 = 0.512	741.5
38600 kPa, x2 = 0.5996	746.7
38600 kPa, x2 = 0.7052	753.3
38600 kPa, x2 = 0.7993	760
38600 kPa, x2 = 0.9039	768.9
39620 kPa, x2 = 0	722.2
39620 kPa, x2 = 0.09303	725.1
39620 kPa, x2 = 0.2009	729
39620 kPa, x2 = 0.3051	733
39620 kPa, x2 = 0.417	737.7
39620 kPa, x2 = 0.512	742.1
39620 kPa, x2 = 0.5996	747.4
39620 kPa, x2 = 0.7052	754
39620 kPa, x2 = 0.7993	760.7
39620 kPa, x2 = 0.9039	769.6
